Structures can show the parent of a compound that is named as a salt.
Columns and labels:
[1] = system: human DNA NA12878 treated with human TET2 dioxygenase; assay: caC detection by Illumina sequencing, two-step incubation; settings: borane 40 mM or 100 mM, pH 4.3, 40° C. 2.5 hours, quench alpha-ketoglutarate, then 40° C. 18 hours; FIG. 5
Procedure: A sample of human DNA NA12878 was treated with human TET2 dioxygenase to oxidise mC to caC. The sample was purified by a 1.8×SPRI and resuspended in RSB buffer. 2 M stocks of the amine-boranes were prepared in DMF, then added to the DNA to a final concentration of 40 mM or 100 mM, along with pH 4.3 sodium acetate buffer to a final concentration of 0.5 M. For the one-step protocol, the samples were incubated at 40° C. for 18 hours and 750 rpm shaking. For the two-step protocol, the samples were incubated at 40° C. for 2.5 hours and 750 rpm shaking, then quenched with a 1 M solution of alpha-ketoglutarate at pH 4.3 (to a final concentration of 400 mM) and kept at 40° C. for 18 hours and 750 rpm shaking. After the incubation, all samples underwent a 1.8×SPRI purification after adding 1 M pH 9 TRIS to basify the pH. Libraries were then amplified via PCR using the NEB-Next Enzymatic Methyl-Seq kit's NEB-Next Q5U Master Mix along with NEBNext Multiplex Oligos for Illumina Index primers. A final 0.9×SPRI was performed, before libraries were normalized to 20 pM sequenced on an Illumina NovaSeq (2×151 cycles). The sequencing data was analysed to extract the beta value, which reflects the percentage conversion of 5mC or 5hmC to T.
The percentage caC sites were detected by Illumina sequencing.

[2] = system: dsDNA (300 bp-500 bp long, containing 4 known caC sites per strand); assay: caC detection of dsDNA by Illumina sequencing, one-step overnight incubation; settings: one-step protocol, 100 mM borane, pH 4.3, 40° C., 16 h; expected beta=1; FIG. 4
Procedure: An aliquot of 2 M borane stock solution in DMF was added to a buffered solution containing calculated amount of dsDNA (300 bp-500 bp long, containing 4 known caC sites per strand), resulting in the final borane concentration of 100 mM and pH of 4.3 (0.5 M NaOAc). The reaction mixture (50 μL) was shaken at 40° C. for 16 h. Then, the samples were purified by 1.8×SPRI (pH adjusted with 1 M Tris buffer pH=9.0). The purified DNA was PCR-amplified using the NEB-Next Enzymatic Methyl-Seq kit's NEB-Next Q5U Master Mix along with IDT-ILMN NextEra UDI Index primers. Finally, 0.9×SPRI purification was performed. The DNA libraries were normalized to 2 nM and 20 pM sequenced on an Illumina NextSeq instrument. The sequencing data was analysed to extract the beta value, which reflects the percentage conversion of caC to T.
The boranes tested included 5-methylthiazole borane VM117, 3-aminopyridine borane (3 AP), 4-methylpyridine-borane (4MeP), 5-(methoxymethyl)-2,4-dimethyl-1,3-thiazole borane (VM293), and 4-hydroxymethylpyridine borane (4HMP). […] The percentage of caC sites were detected by Illumina sequencing.

[3] = system: 7mer oligodeoxyribonucleotide AT[5caC]GCTA; assay: Reaction kinetics of caC reduction on 7mer, boranes with cationic moieties; settings: 50 μM 7mer, 10 mM borane, NaOAc pH 4.3, 25° C.; FIG. 7
Procedure: (§1) To 45 μL of an aqueous solution of 0.111 mM 5caCpG dimer (0.1 mM final concentration) or 55.6 μM 7mer oligodeoxyribonucleotide (50 μM final concentration, sequence: AT[5caC]GCTA) or 22.2 μM 20mer oligodeoxyribonucleotide (20 μM final concentration, sequence: TTTCAGCTC[5caC]GGTCACGCTC) in 556 mM NaOAc buffer (pH 4.3, 500 mM final concentration) were added 5 μL of a stock solution of the respective borane (100 mM in DMF, 10 mM final concentration) and the reaction was incubated at 25° C. after short vortexing. Aliquots of 8 μL were taken at set time points and were quenched immediately with 4 μL alpha-ketoglutarate monosodium salt (1.0 M in H2O) and analysed by RP-UHPLC for consumption of the caC moiety in the starting material and formation of the product DHU moiety.

[4] = system: 20mer oligodeoxyribonucleotide TTTCAGCTC[5caC]GGTCACGCTC; assay: Reaction kinetics of caC reduction on 20mer, boranes with cationic moieties; settings: 20 μM 20mer, 10 mM borane, NaOAc pH 4.3, 25° C.; FIG. 7
Procedure: as §1

Row | SMILES | beta values with two-step protocol compared with one-step protocol [1] | beta value (percentage of caC sites detected by Illumina sequencing; conversion of caC to T) [2] | reaction kinetics of consumption of caC on the 7mer [3] | reaction kinetics of consumption of caC on the 20mer [4]
1 | [BH3-][n+]1ccc(C)cc1 | consistent with the value obtained with the one-step protocol | ~1 | – | –
2 | [BH3-][n+]1cccc(N)c1 [3 AP, 3-aminopyridine borane] | – | ~1 | – | –
3 | C[N+](C)(C)CC(=O)NCc1ccncc1 [4AMP-Bet, 4-(Betainamidomethyl)pyridine borane (OBt/PF6 salt)] | – | – | efficient reaction kinetics of consumption of caC | efficient reaction kinetics of consumption of caC
4 | [BH3-][n+]1ccc(CO)cc1 [4HMP, 4-Hydroxymethylpyridine borane] | – | ~1 | – | –
5 | B[n+]1csc(C)c1 [VM117, 5-methylthiazole borane] | consistent with the value obtained with the one-step protocol | ~1 | – | –
6 | B[n+]1c(C)sc(COC)c1C [VM293, 5-(methoxymethyl)-2,4-dimethyl-1,3-thiazole borane] | – | ~1 | – | –
